From a melting point compilation (Tetko et al.)

melting point	SMILES
121 °C	O=C(O)CNC(=O)OCc1ccccc1
204 to 208 °C	CC(=O)Nc1nccs1
-60 °C	C=CC(=O)OCCN(CC)CC
229 °C	CC12CCCC1C1CCC(CC(=O)O)C(C)(CC(=O)O)C1CC2 (configuration not stated)
6.5 °C	CCCC(=O)C(=O)O
64 to 66 °C	O=C(CBr)C(c1ccccc1)c1ccccc1
76.8 °C	CC(=O)C(C)=NO
40 °C	CCCCCCCCCCCCCCCCCCCc1ccccc1
149 °C	COc1ncccc1C(=O)O
-118 °C	CCC(C)CC
-45 °C	CCC(=O)C(C)(C)C
-25.6 °C	CC1CC(C)(C)CC1=O (configuration not stated)
53 °C	CC(=O)c1cc(F)cc(Cl)c1
276 °C	NC(=O)C=CC(N)=O
84 °C	O=C(NC(CSSCC(NC(=O)OCc1ccccc1)C(=O)O)C(=O)O)OCc1ccccc1 (configuration not stated)
130 to 132 °C	COc1ccccc1N1CCN(CC(N)=S)CC1
116 °C	N#Cc1cccc(C[C@H](NC(=O)OCC2c3ccccc3-c3ccccc32)C(=O)O)c1
-57.5 °C	CCCCCCCOC(=O)CCC
53 to 55 °C	CSC(SC)=C(C#N)C(=O)c1cccc(C)c1

melting point	SMILES
44 °C	COCCc1ccc(O)cc1
232 °C	COc1c(Cl)c(C)c2c(c1Cl)OC(=O)c1c(C)c(Cl)c(O)c(Cl)c1O2
146 to 148 °C	CC(=O)c1[nH]c2ccccc2c1C
144 °C	CC(=O)Oc1cc(C(C)C)c(OCCN(C)C)cc1C
195 °C	C=CC(=O)NC(C)(C)CS(=O)(=O)O
144 °C	Cc1c(C(C)OC(=O)CCC(=O)O)oc2ccc(C3=CC(=O)OC3)cc12 (configuration not stated)
166 to 169 °C	COc1cc(C(=O)O)c([N+](=O)[O-])c(OC)c1OC
54 °C	CC(=O)CCc1ccc2c(c1)NC(C)CC2 (configuration not stated)
-108 °C	CCC1CCC(C)C1 (configuration not stated)
18 °C	C#CC(=O)O
186 °C	CCOC(=O)c1sc(N)nc1C(F)(F)F
76 °C	CCOC(=O)NC1C2CCC(C)(C1O)C2(C)C (configuration not stated)
102 to 107 °C	NN1CCN(CCO)CC1
255 to 258 °C	Nc1ccc(CC(N)C(=O)O)cc1 (racemic)
124 °C	COc1ccccc1CC(=O)O
147 °C	CC1CCC(C)(C(=O)CN(C)C(=S)Nc2ccccc2)C1(C)C (configuration not stated)
156 °C	COc1cc(C(=O)NN)cc(OC)c1O
269 °C	CC1COc2c(C3(N)CC3)c(F)cc3c(=O)c(C(=O)O)cn1c23 (configuration not stated)

More lines, now with the values behind:

SMILES	melting point
O=C(O)/C(=C/c1ccc([N+](=O)[O-])cc1)c1ccccc1C(=O)O	223 °C
Cc1c(Br)cccc1[N+](=O)[O-]	40 °C
OCc1cc(O)cc(O)c1	181 to 186 °C
CC(=O)c1ccc(O)c(C(F)(F)F)c1	176 °C
Cn1c(=O)c(C2=NNC(=O)C2)c(O)c2ccccc21	287 °C
N#Cc1c(N=[N+]([O-])c2cnn(-c3ccccc3)c2C#N)cnn1-c1ccccc1	265 °C
Nc1ccc2cc[nH]c2c1	73 °C
O=C(C=Cc1ccccc1O)c1cccc(C(=O)C=Cc2ccccc2O)c1	150 °C
Cc1nc(/C(C#N)=C/c2ccc(F)cc2)sc1/N=N/c1c(Br)cc(Br)cc1Br	170 °C
CC(C)(C)c1ccc(OCC#N)cc1	69 °C
O=c1[nH]c2scc(-c3ccccc3)c2c(=O)n1-c1ccccc1	305 to 308 °C
CN1CCCN(C)CCN(C)CCCN(C)CC1	41 to 43 °C
O=C(O)C=CC=Cc1ccc2c(c1)OCO2	215 °C
CN(C)c1ccc(C#N)cc1	74 °C
Nc1ccc(N=Nc2ccc([N+]([O-])=Nc3ccc(N)cc3)cc2)cc1	247 °C
N#Cc1ccnc(N)c1	150 °C
Clc1ccnc(Cl)n1	60 °C
Cc1cc(C)c(NC(=O)C(C(F)(F)F)C(F)(F)F)c(C)c1	189 °C
C=C(C(=O)O)C1CCC2C(=CCC3C(C)(C)C(O)CCC23C)C1 (configuration not stated)	218 °C
c1coc(CSSCc2ccco2)c1	10 °C
O=[N+]([O-])c1ccc(/C=C\c2ccccc2[N+](=O)[O-])cc1	138 to 139 °C
Cc1c(S(=O)(=O)c2ccc(Cl)cc2)csc1C(=O)Cl	131 to 132 °C
O=C(O)CNc1ccccc1C(=O)O	218 °C
O=C1c2ccccc2C(=O)c2c(Br)cccc21	186 °C
O=C(O)/C(=C/c1cccc2ccccc12)c1ccccc1	160 to 161 °C
O=c1ccn(C2OC(CO)C(O)C2O)c(=O)[nH]1 (configuration not stated)	168 °C
Nc1cccc2cc[nH]c12	91 °C
O=C(Nc1ccc(O)cc1)c1ccccc1O	179 °C

SMILES	melting point
C=C[Si](C)(C)O[Si](C)(C)C=C	-99.7 °C
COc1ccc(-c2csc(/C(C#N)=N\Nc3cc(C)ccc3C)n2)cc1	155 °C
CC(=O)Oc1ccc2c(c1)Oc1cc(OC(C)=O)ccc1C21OC(=O)c2ccccc21	200 to 205 °C
Oc1ccc(Cl)c2cccnc12	130 °C
Clc1cc2oc3c(Cl)cc(Cl)c(Cl)c3c2cc1Cl	237 °C
Cc1ccccc1NN=C1C(=O)NC(=O)NC1=O	265 °C
COc1ccc2c(c1)CC1(CCC(c3ccc(C(C)(C)C)cc3)CC1)C2=O (configuration not stated)	166 to 167 °C
Nc1c(Br)cc(F)cc1Br	65 °C
COc1cc(C2Nn3c(nnc3-c3cccc([N+](=O)[O-])c3)S2)ccc1O (configuration not stated)	165 °C
CSC(S)=Nc1ccc(Cl)cc1	112 to 113 °C
CCC1(C)CC(=O)NC(=O)C1	126 °C
CCC1OC(=O)C(C)C(OC2CC(C)(OC)C(O)C(C)O2)C(C)C(OC2OC(C)CC(N(C)C)C2O)C(C)(O)CC(C)C(=O)C(C)C(O)C1(C)O (configuration not stated)	135 °C
O=S(=O)(Cl)c1cc(OCC(F)(F)F)ccc1OCC(F)(F)F	47 to 50 °C
CC(=O)c1cc2c(cc1Br)OCCCO2	56 to 58 °C
Cc1cc(C)c2c(-c3ccccc3)nn(-c3ccccc3)c2n1	114 °C
CC1(C)C2CCC(O2)C(Cl)C1O (configuration not stated)	71 to 72 °C
OCC(O)COc1ccccc1 (configuration not stated)	62.8 °C
OC12CCCC1c1ccccc12 (configuration not stated)	66 °C
c1ccc(Nc2ccc3ccccc3c2)cc1	108 °C
O=C1C(c2ccccc2)=C(c2ccccc2)C(c2ccccc2)=C1c1ccccc1	217 to 222 °C
O=Cc1coc2ccccc2c1=O	151 to 155 °C
O=C1NC(=O)C(=NO)C(=O)N1	236 to 242 °C
Cc1ccc(/C=C2\CCC/C(=C\c3ccc(C)s3)C2=O)s1	166 °C
Oc1ccc(Cl)c(Cl)c1Cl	83.5 °C
CC12CCC(=O)CC1(O)CCC2=O (single isomer, unassigned; (+))	110 to 118 °C
Cc1nc2sc3c(c2c(=O)n1NC(=O)c1ccccc1Cl)CCCC3	244 to 246 °C
CC(=O)Nc1sc2c(c1C#N)CCCC2	215 to 217 °C
